The source of these data is publication PMC11990103, “Anticancer Activity and Safety Profile of Novel 1-(4-Fluorophenoxyacetyl)-4-substituted Thio/Semicarbazide Derivatives” (Molecules, 2025).

Bounds are passed on as bounds.

In one assay the test system is G-361 melanoma cell line. Description: qRT-PCR relative gene expression. It counts as cell-based, human. The conditions noted are these: G-361, 24 h, concentration corresponding to IC50. The method, then: (§1) An analysis was conducted to examine the impact of the thiosemicarbazide AB2 on LNCaP prostate cancer cells and G-361 melanoma cells, focusing on the expression of genes associated with oxidative stress, cell cycle regulation, DNA repair, and apoptosis. Superoxide dismutase (SOD2), catalase (CAT), and glutathione peroxidase 1 (GPX1) are critical antioxidant enzymes that protect cells from oxidative stress by neutralizing reactive oxygen species (ROS) and mitigating potential cellular damage. […] This indicates heightened activation of cell cycle arrest mechanisms, given that p21 acts as an important inhibitor of cyclin-dependent kinases essential for cell cycle progression. […] The contrasting alterations in CDKN1A and CYCD indicate a transition toward cell cycle arrest in response to AB2 (Figure 9B). The next assessed panel of genes includes those involved in DNA damage sensing and repair, specifically ATM and ATR. ATM and ATR are fundamental components of the DNA damage response, responsible for the detection and repair of double-strand and single-strand DNA breaks, respectively.
(§2) The last assessed panel of genes includes genes involved in the process of apoptosis. BAX is a protein that enhances apoptosis, a natural to eliminate damaged or cancer cells. On the other hand, BCL-2 prevents apoptosis, helping cancer cells survive and resist therapy. […] The decrease in BCL-2 expression, along with stable BAX levels, led to a higher BAX/BCL-2 ratio in comparison to the control.
(§3) The relative gene expression was quantitatively assessed using real-time PCR. […] Next, for cell lysis the 1 mL of TRIzol™ reagent (Invitrogen, Carlsbad, CA, USA) was added. RNA was isolated according to the Chomczynski and Sacchi method. The RNA was reverse transcribed using NG dART RT-PCR reagents (EURx, Gdańsk, Poland) according to the manufacturer’s instructions. Following the manufacturer’s recommendation, the qPCR reaction was conducted in triplicate in a 7500 fast real-time PCR machine (ThermoFisher, Waltham, MA, USA) using Fast SG/ROX qPCR Master Mix (2×) (EURx, Gdansk, Poland). 18SRNA and BACT were used as reference genes. Gene expression was evaluated using qRT-PCR and ΔΔCt. Statistical analysis was conducted using RQ values (RQ = […]).

The test system of assay [1] is LNCaP prostate cancer cell line. Description: qRT-PCR relative gene expression. Type of assay: cell-based, human. The conditions noted are these: 24 h, concentration corresponding to IC50. The method, then: as §1, §2, §3

As for `O=C(COc1ccc(F)cc1)NNC(=S)Nc1ccccc1Cl` [AB2], in the assay on G-361 melanoma cell line, the ATM gene expression entry was “downregulated”, the ATR gene expression result is listed as “downregulated”, the BAX gene expression entry is reported as “did not differ from the control cultures” and the “BAX/BCL-2 ratio in comparison to the control” value was “higher”. For the same molecule, in the assay on G-361 melanoma cell line, the BCL-2 gene expression result is “significantly downregulated”; the “CAT gene expression, increase” value is “approximately 8 fold”; the “CDKN1A (p21) gene expression” value was “significantly upregulated”; the “CYCD (cyclin D) gene expression” value is on record as “notably downregulated”. Besides, in the assay on G-361 melanoma cell line, the GPX1 gene expression result was “moderate but significant rise”; the “SOD2 gene expression, rise compared to control” value is recorded as above 100 fold; the TP53 gene expression entry was “significant downregulation”. In assay [1], the ATM gene expression entry is recorded as “downregulated”, the ATR gene expression entry is on record as “downregulated”, the BAX gene expression result is “did not differ from the control cultures” and the “BAX/BCL-2 ratio in comparison to the control” value is reported as “higher”. For the same molecule, in assay [1], the BCL-2 gene expression entry is on record as “significantly downregulated”; the “CAT gene expression, increase” value is on record as around 6 fold; the “CDKN1A (p21) gene expression” value is on record as “significantly upregulated”; the “CYCD (cyclin D) gene expression” value is listed as “notably downregulated”. In addition, in assay [1], the GPX1 gene expression entry was “moderate but significant rise”; the “SOD2 gene expression, increase compared to control” value is recorded as above 20 fold; the TP53 gene expression result is listed as “significant downregulation”.
